Laboratory results as given in ChEMBL document CHEMBL1201862, “PubChem BioAssay data set” (2004).
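Following 48 hours of exposure in 96-well plates, responses at five concentrations were used to interpolate endpoints linearly. GI50 = concentration required for 50% inhibition of growth.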 The source made the active and inactive calls. Rule as the data show it: active = GI50 up to about 1.1 µM and inactive = higher.

Key:
Assay in all cases: NCI-60 cell line screen, 48 h
Hs-578T = system: Hs-578T
MDA-N = system: MDA-N
SK-OV-3 = system: SK-OV-3
COLO 205 = system: COLO 205
EKVX = system: EKVX
U-251 = system: U-251
SK-MEL-28 = system: SK-MEL-28
SK-MEL-2 = system: SK-MEL-2
ACHN = system: ACHN
HOP-92 = system: HOP-92
NCI-H460 = system: NCI-H460
SF-295 = system: SF-295
K562 = system: K562
BT-549 = system: BT-549
SK-MEL-5 = system: SK-MEL-5
MDA-MB-231 = system: MDA-MB-231
CCRF-CEM = system: CCRF-CEM
A549 = system: A549
HL-60 = system: HL-60

SMILES	GI50 (Hs-578T)	GI50 (MDA-N)	GI50 (SK-OV-3)	GI50 (COLO 205)	GI50 (EKVX)	GI50 (U-251)	GI50 (SK-MEL-28)	GI50 (SK-MEL-2)	GI50 (ACHN)	GI50 (HOP-92)	GI50 (NCI-H460)	GI50 (SF-295)	GI50 (K562)	GI50 (BT-549)	GI50 (SK-MEL-5)	GI50 (MDA-MB-231)	GI50 (CCRF-CEM)	GI50 (A549)	GI50 (HL-60)
CCN(CC)c1ccc(/C=c2\nc(-c3ccccc3)n3c2nc2ccccc23)cc1	24.4 µM (inactive)	6.25 µM (inactive)	24.4 µM (inactive)	5.14 µM (inactive)	1.67 µM (inactive)	2.1 µM (inactive)	0.0231 µM (active)	15.4 µM (inactive)	15 µM (inactive)	68.7 µM (inactive)	1.98 µM (inactive)	4.58 µM (inactive)	3.77 µM (inactive)	16.9 µM (inactive)	3.64 µM (inactive)	14.8 µM (inactive)	0.544 µM (active)	6.21 µM (inactive)	
COC(C)(C)/C=C/c1[nH]c2ccccc2c1CC(=O)NCCc1cn(C(c2ccccc2)(c2ccccc2)c2ccccc2)cn1	7.1 µM (inactive)	4.33 µM (inactive)		2.02 µM (inactive)	3.44 µM (inactive)	4.45 µM (inactive)	9.77 µM (inactive)	2.64 µM (inactive)	4.53 µM (inactive)	5.33 µM (inactive)	2.62 µM (inactive)	4.7 µM (inactive)	3.17 µM (inactive)	7.87 µM (inactive)	2.92 µM (inactive)	4.72 µM (inactive)	3.68 µM (inactive)	3.71 µM (inactive)	2.92 µM (inactive)
O=C1CCCc2cc3c(cc21)CCC3C(=O)O (configuration not stated)	> 100 µM (inactive)	> 100 µM (inactive)	> 100 µM (inactive)	> 100 µM (inactive)	> 100 µM (inactive)	> 100 µM (inactive)	> 100 µM (inactive)	> 100 µM (inactive)	> 100 µM (inactive)		> 100 µM (inactive)	> 100 µM (inactive)	> 100 µM (inactive)	> 100 µM (inactive)	> 100 µM (inactive)	> 100 µM (inactive)	> 100 µM (inactive)	> 100 µM (inactive)	> 100 µM (inactive)
CC[C@H]1C=CCC[C@@]2(C[C@@H]3CC[C@@H]4[C@H](C(=O)OCCCCCCCCCCCCCCCC(=O)N(CCCN)C[C@@H](O)CCN)[C@]5(CCC[C@@H](C)O5)NC(=[N+]34)N2)O1	1.21 µM (inactive)	0.127 µM (active)	2.05 µM (inactive)	0.316 µM (active)	0.897 µM (active)	0.381 µM (active)	1.27 µM (inactive)	0.229 µM (active)	0.349 µM (active)	0.158 µM (active)	0.443 µM (active)	0.518 µM (active)	0.236 µM (active)	0.807 µM (active)	0.0407 µM (active)	0.748 µM (active)		0.282 µM (active)	0.318 µM (active)
Cc1ccc(/N=C2/S/C(=C3/CCC=C3N3CCOCC3)N(c3ccc(Cl)cc3)/C2=N/c2ccc(C)cc2)cc1	> 100 µM (inactive)	> 100 µM (inactive)		> 100 µM (inactive)	> 100 µM (inactive)	> 100 µM (inactive)	> 100 µM (inactive)	> 100 µM (inactive)	> 100 µM (inactive)	> 100 µM (inactive)	> 100 µM (inactive)		> 100 µM (inactive)	> 100 µM (inactive)	> 100 µM (inactive)	> 100 µM (inactive)		> 100 µM (inactive)	> 100 µM (inactive)
CC1CC(C#N)=C2NCCCCN2C1=O (configuration not stated)	> 100 µM (inactive)	> 100 µM (inactive)	> 100 µM (inactive)	> 100 µM (inactive)	> 100 µM (inactive)	> 100 µM (inactive)	> 100 µM (inactive)	> 100 µM (inactive)			> 100 µM (inactive)	> 100 µM (inactive)	> 100 µM (inactive)	> 100 µM (inactive)	> 100 µM (inactive)	> 100 µM (inactive)	> 100 µM (inactive)	> 100 µM (inactive)	> 100 µM (inactive)
CCCN1CCC(=O)N(CCC(F)(F)C(F)(F)C(F)(F)C(F)(F)C(F)(F)C(F)(F)F)C1=S	> 100 µM (inactive)	> 100 µM (inactive)	> 100 µM (inactive)	69.7 µM (inactive)	> 100 µM (inactive)	> 100 µM (inactive)	> 100 µM (inactive)		> 100 µM (inactive)	> 100 µM (inactive)	> 100 µM (inactive)	> 100 µM (inactive)	> 100 µM (inactive)	> 100 µM (inactive)	> 100 µM (inactive)	> 100 µM (inactive)	> 100 µM (inactive)	> 100 µM (inactive)	> 100 µM (inactive)
CN(c1ccccc1Cl)S(=O)(=O)c1ccc([N+](=O)[O-])cc1	> 100 µM (inactive)	> 100 µM (inactive)	> 100 µM (inactive)	> 100 µM (inactive)	> 100 µM (inactive)	> 100 µM (inactive)	> 100 µM (inactive)	> 100 µM (inactive)	> 100 µM (inactive)		> 100 µM (inactive)	> 100 µM (inactive)	> 100 µM (inactive)	> 100 µM (inactive)	> 100 µM (inactive)	> 100 µM (inactive)	> 100 µM (inactive)	> 100 µM (inactive)	> 100 µM (inactive)
CC(C)(CC(O)C#N)/[N+]([O-])=[N+](\[O-])C(C)(C)CC(O)C#N (configuration not stated)	12.2 µM (inactive)	20.7 µM (inactive)	29.8 µM (inactive)	14.8 µM (inactive)	32.6 µM (inactive)	26.5 µM (inactive)	26.6 µM (inactive)	43 µM (inactive)	23.2 µM (inactive)	18.2 µM (inactive)	36.1 µM (inactive)	35.7 µM (inactive)	14.4 µM (inactive)	20.6 µM (inactive)	29.2 µM (inactive)	23.9 µM (inactive)		57.4 µM (inactive)	
CC(C)C(=O)CC(Sc1ccc(N)cc1)c1ccccc1 (configuration not stated)	21.7 µM (inactive)	16 µM (inactive)	26.4 µM (inactive)	33.2 µM (inactive)		16.6 µM (inactive)	30.8 µM (inactive)	23.3 µM (inactive)	20 µM (inactive)		23.2 µM (inactive)	25.6 µM (inactive)	25.4 µM (inactive)	33.7 µM (inactive)	20.4 µM (inactive)	22.3 µM (inactive)	17.1 µM (inactive)	28.1 µM (inactive)	16.2 µM (inactive)
NNS(=O)(=O)c1ccc(/C=C2\NC(=O)NC2=O)cc1	> 100 µM (inactive)	> 100 µM (inactive)	> 100 µM (inactive)	> 100 µM (inactive)	> 100 µM (inactive)	> 100 µM (inactive)	> 100 µM (inactive)	37.9 µM (inactive)	> 100 µM (inactive)	> 100 µM (inactive)		> 100 µM (inactive)	> 100 µM (inactive)	> 100 µM (inactive)	> 100 µM (inactive)	> 100 µM (inactive)	> 100 µM (inactive)	> 100 µM (inactive)	> 100 µM (inactive)
O=C1/C(=C\c2cccc(Oc3ccccc3)c2)S(=O)(=O)C(c2ccccc2)N1c1cccc(Cl)c1 (configuration not stated)	65.5 µM (inactive)	25.9 µM (inactive)	66.4 µM (inactive)	69.8 µM (inactive)	51.1 µM (inactive)	50.4 µM (inactive)	> 100 µM (inactive)	> 100 µM (inactive)	71.8 µM (inactive)	27.7 µM (inactive)	88.3 µM (inactive)	39.4 µM (inactive)	26.4 µM (inactive)	45.8 µM (inactive)	43.9 µM (inactive)	> 100 µM (inactive)	11.1 µM (inactive)	> 100 µM (inactive)	
CC12CCC(C(=O)n3c1nc1ccccc13)C(C)(C)O2 (configuration not stated)	16.3 µM (inactive)	> 100 µM (inactive)	> 100 µM (inactive)	> 100 µM (inactive)	> 100 µM (inactive)	> 100 µM (inactive)	> 100 µM (inactive)	> 100 µM (inactive)	> 100 µM (inactive)	> 100 µM (inactive)		> 100 µM (inactive)	> 100 µM (inactive)	> 100 µM (inactive)	49 µM (inactive)	> 100 µM (inactive)	> 100 µM (inactive)	> 100 µM (inactive)	> 100 µM (inactive)
CCN(CC)C(=S)N/N=C/c1cc(OC)ccc1O	69.8 µM (inactive)	6.68 µM (inactive)	5.21 µM (inactive)	3.86 µM (inactive)	10.4 µM (inactive)	3.61 µM (inactive)	3.72 µM (inactive)	74.1 µM (inactive)	2.98 µM (inactive)		1.66 µM (inactive)	4.11 µM (inactive)	4.52 µM (inactive)	7.05 µM (inactive)	6.22 µM (inactive)	30.7 µM (inactive)	0.895 µM (active)	4.17 µM (inactive)	2.46 µM (inactive)
COc1c(-c2nc3ccc(N4CCN(C)CC4)nc3[nH]2)cc(OC)c2c1nc(COC(C)=O)n2C	> 100 µM (inactive)	> 100 µM (inactive)	> 100 µM (inactive)	92.7 µM (inactive)	> 100 µM (inactive)	97.1 µM (inactive)		33 µM (inactive)	> 100 µM (inactive)	> 100 µM (inactive)		> 100 µM (inactive)	> 100 µM (inactive)	> 100 µM (inactive)	> 100 µM (inactive)	51.3 µM (inactive)		> 100 µM (inactive)	
